Measurements from ChEMBL document CHEMBL4422644, “Synthesis and evaluation of α-aminoacyl amides as antitubercular agents effective on drug resistant tuberculosis” (Eur J Med Chem, 2019).
Converted amounts (≈) assume the structure as drawn.

Tests used:
[1] = Cytotoxicity against HEK cells after 24 hrs by MTT assay; type: cell-based; conditions: Homo sapiens, HEK293, 24 h
Acinetobacter baumannii = test: Antibacterial activity against Acinetobacter baumannii ATCC BAA-1605 after 24 hrs; type: functional; conditions: ATCC BAA-1605, 24 h
MCF7 = test: Cytotoxicity against human MCF7 cells after 24 hrs by MTT assay; type: functional, cell-based; conditions: MCF7, 24 h
Pseudomonas aeruginosa = test: Antibacterial activity against Pseudomonas aeruginosa ATCC 27853 after 24 hrs; type: functional; conditions: ATCC 27853, 24 h
HepG2 = test: Cytotoxicity against human HepG2 cells after 24 hrs by MTT assay; type: functional, cell-based; conditions: HepG2, 24 h
Mycobacteroides chelonae = test: Antibacterial activity against Mycobacterium chelonae after 7 days by alamar blue assay; type: functional; conditions: 168 h
Staphylococcus aureus = test: Antibacterial activity against Staphylococcus aureus ATCC 29213 after 24 hrs; type: functional; conditions: ATCC 29213, 24 h
Klebsiella pneumoniae = test: Antibacterial activity against Klebsiella pneumoniae ATCC BAA-1705 after 24 hrs; type: functional; conditions: ATCC BAA-1705, 24 h
Escherichia coli = test: Antibacterial activity against Escherichia coli ATCC 25922 after 24 hrs; type: functional; conditions: ATCC 25922, 24 h
[2] = test system: Mycolicibacterium fortuitum; test: Antibacterial activity against Mycobacterium fortuitum after 7 days by alamar blue assay; type: functional; conditions: 168 h
[3] = Selectivity index, ratio of IC50 for CHOK1 cells to MIC for Mycobacterium tuberculosis H37Rv; type: toxicity; conditions: hamster, read-out: Selectivity Index
A549 = test: Cytotoxicity against human A549 cells after 24 hrs by MTT assay; type: functional, cell-based; conditions: A549, 24 h
HeLa = test: Cytotoxicity against human HeLa cells after 24 hrs by MTT assay; type: functional, cell-based
[4] = test system: Mycobacteroides abscessus; test: Antibacterial activity against Mycobacterium abscessus after 7 days by alamar blue assay; type: functional; conditions: 168 h
[5] = test system: Mycobacterium tuberculosis; test: Antitubercular activity against Mycobacterium tuberculosis H37Rv after 7 days by alamar blue assay; type: functional; conditions: 168 h
DU-145 = test: Cytotoxicity against human DU145 cells after 24 hrs by MTT assay; type: functional, cell-based; conditions: DU-145, 24 h
[6] = Cytotoxicity against […] B16 cells after 24 hrs by MTT assay; type: functional, cell-based; conditions: B16, 24 h
CHO-K1 = test: Cytotoxicity against CHOK1 cells after 24 hrs by MTT assay; type: cell-based; conditions: Cricetulus griseus, CHO-K1, 24 h

## Cc1cccc(N(C(=O)c2ccc[nH]2)C(C(=O)NC2CCCCC2)c2ccccc2)c1C (stereo unspecified)
[1]
  IC50: 116 µM
Acinetobacter baumannii
  MIC: > 50 µM
MCF7
  IC50: 3.58 µM
Pseudomonas aeruginosa
  MIC: > 50 µM
HepG2
  IC50: 11 µM
Mycobacteroides chelonae
  MIC: > 50 µM
Staphylococcus aureus
  MIC: > 50 µM
Klebsiella pneumoniae
  MIC: > 50 µM
Escherichia coli
  MIC: > 50 µM
[2]
  MIC: > 50 µM
[3]
  selectivity ratio: 10.7
A549
  IC50: 6.83 µM
HeLa
  IC50: 14.2 µM
[4]
  MIC: > 50 µM
[5]
  MIC: 12.5 µM (≈ 5.37 µg/mL)
DU-145
  IC50: 11.2 µM
[6]
  IC50: 12.3 µM
CHO-K1
  IC50: 134 µM

## Cc1cccc(N(C(=O)c2ccncc2)C(C(=O)NC2CCCCC2)c2cccnc2)c1C (stereo unspecified)
[1]
  IC50: 86.1 µM
Acinetobacter baumannii
  MIC: > 50 µM
MCF7
  IC50: 6.14 µM
Pseudomonas aeruginosa
  MIC: > 50 µM
HepG2
  IC50: 12.7 µM
Mycobacteroides chelonae
  MIC: > 50 µM
Staphylococcus aureus
  MIC: > 50 µM
Klebsiella pneumoniae
  MIC: > 50 µM
Escherichia coli
  MIC: > 50 µM
[2]
  MIC: > 50 µM
[3]
  selectivity ratio: 11.3
A549
  IC50: 11.8 µM
HeLa
  IC50: 11.2 µM
[4]
  MIC: > 50 µM
[5]
  MIC: 3.12 µM (≈ 1.38 µg/mL)
DU-145
  IC50: 20.2 µM
[6]
  IC50: 19.8 µM
CHO-K1
  IC50: 171 µM

## Cc1ccc(N(C(=O)c2ccc[nH]2)C(C(=O)NC2CCCCC2)c2ccccc2)c(C)c1 (stereo unspecified)
[1]
  IC50: 33.2 µM
Acinetobacter baumannii
  MIC: > 50 µM
MCF7
  IC50: 15.5 µM
Pseudomonas aeruginosa
  MIC: > 50 µM
HepG2
  IC50: 13.5 µM
Mycobacteroides chelonae
  MIC: > 50 µM
Staphylococcus aureus
  MIC: > 50 µM
Klebsiella pneumoniae
  MIC: > 50 µM
Escherichia coli
  MIC: > 50 µM
[2]
  MIC: > 50 µM
[3]
  selectivity ratio: 10.8
A549
  IC50: 15.5 µM
HeLa
  IC50: 10.9 µM
[4]
  MIC: > 50 µM
[5]
  MIC: 6.25 µM (≈ 2.68 µg/mL)
DU-145
  IC50: 9.3 µM
[6]
  IC50: 32.5 µM
CHO-K1
  IC50: 68.2 µM

## Cc1cccc(N(C(=O)c2cccs2)C(C(=O)NC2CCCCC2)c2ccccc2)c1C (stereo unspecified)
[1]
  IC50: 22.9 µM
Acinetobacter baumannii
  MIC: > 50 µM
MCF7
  IC50: 16.9 µM
Pseudomonas aeruginosa
  MIC: > 50 µM
HepG2
  IC50: 9.63 µM
Mycobacteroides chelonae
  MIC: > 50 µM
Staphylococcus aureus
  MIC: > 50 µM
Klebsiella pneumoniae
  MIC: > 50 µM
Escherichia coli
  MIC: > 50 µM
[2]
  MIC: > 50 µM
[3]
  selectivity ratio: 12.2
A549
  IC50: 17.9 µM
HeLa
  IC50: 12.7 µM
[4]
  MIC: > 50 µM
[5]
  MIC: 3.12 µM (≈ 1.39 µg/mL)
DU-145
  IC50: 9.14 µM
[6]
  IC50: 14.3 µM
CHO-K1
  IC50: 38.2 µM

## Cc1cc(C)c(N(C(=O)c2sc(C)nc2C)C(C(=O)NC2CCCCC2)c2ccccc2)c(C)c1 (stereo unspecified)
[1]
  IC50: 51.2 µM
Acinetobacter baumannii
  MIC: > 50 µM
MCF7
  IC50: 3.56 µM
Pseudomonas aeruginosa
  MIC: > 50 µM
HepG2
  IC50: 6.37 µM
Mycobacteroides chelonae
  MIC: > 50 µM
Staphylococcus aureus
  MIC: > 50 µM
Klebsiella pneumoniae
  MIC: > 50 µM
Escherichia coli
  MIC: > 50 µM
[2]
  MIC: > 50 µM
[3]
  selectivity ratio: 8
A549
  IC50: 2.75 µM
HeLa
  IC50: 10.9 µM
[4]
  MIC: > 50 µM
[5]
  MIC: 3.25 µM (≈ 1.59 µg/mL)
DU-145
  IC50: 11.7 µM
[6]
  IC50: 11.7 µM
CHO-K1
  IC50: 25.9 µM

## Cc1cccc(N(C(=O)c2ccc[nH]2)C(C(=O)NC2CCCCC2)c2ccncc2)c1C (stereo unspecified)
[1]
  IC50: 108 µM
Acinetobacter baumannii
  MIC: > 50 µM
MCF7
  IC50: 5.85 µM
Pseudomonas aeruginosa
  MIC: > 50 µM
HepG2
  IC50: 8.95 µM
Mycobacteroides chelonae
  MIC: > 50 µM
Staphylococcus aureus
  MIC: > 50 µM
Klebsiella pneumoniae
  MIC: > 50 µM
Escherichia coli
  MIC: > 50 µM
[2]
  MIC: > 50 µM
[3]
  selectivity ratio: 22.6
A549
  IC50: 15.8 µM
HeLa
  IC50: 13.1 µM
[4]
  MIC: > 50 µM
[5]
  MIC: 6.25 µM (≈ 2.69 µg/mL)
DU-145
  IC50: 10.8 µM
[6]
  IC50: 16.6 µM
CHO-K1
  IC50: 142 µM

## Cc1ccc(N(C(=O)c2ccc[nH]2)C(C(=O)NC2CCCCC2)c2cccnc2)cc1 (stereo unspecified)
[1]
  IC50: 120 µM
Acinetobacter baumannii
  MIC: > 50 µM
MCF7
  IC50: 5.61 µM
Pseudomonas aeruginosa
  MIC: > 50 µM
HepG2
  IC50: 11.5 µM
Mycobacteroides chelonae
  MIC: > 50 µM
Staphylococcus aureus
  MIC: > 50 µM
Klebsiella pneumoniae
  MIC: > 50 µM
Escherichia coli
  MIC: > 50 µM
[2]
  MIC: > 50 µM
[3]
  selectivity ratio: 10.7
A549
  IC50: 15.2 µM
HeLa
  IC50: 12 µM
[4]
  MIC: > 50 µM
[5]
  MIC: 12.5 µM (≈ 5.21 µg/mL)
DU-145
  IC50: 15.5 µM
[6]
  IC50: 18.4 µM
CHO-K1
  IC50: 135 µM
